These are literature values, as cited in patent publication US20220323353A1, “BIODEGRADABLE DRUG-ELUTING EMBOLIC PARTICLES FOR DELIVERY OF THERAPEUTIC AGENTS” (Becton, Dickinson and Company, priority 2019, published 2022).

Molecules are shown by their SMILES.

The subject of this series is hepatocellular carcinoma. The note with it: administrated via the hepatic artery.

For the compound `COc1cccc2c1C(=O)c1c(O)c3c(c(O)c1C2=O)C[C@@](O)(C(=O)CO)C[C@@H]3O[C@H]1C[C@H](N)[C@H](O)[C@H](C)O1` [doxorubicin], the “antitumor activity in hepatocellular carcinoma patients” value is “antitumor effects and partial response”.
